According to the supplement of paper PMC11061612:

Tests used:
[1] = test system: NCI-H1915 (Non-Small Cell Lung Carcinoma); test: combination Emax (second highest fraction inhibited in the dose matrix, 72 h); higher = more inhibition; extreme values may be limits of the assay
Summary of the method: (§1)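 Bliss excess equals the observed combination effect minus the expected value EA + EB − EA·EB, where EA and EB are the effects of each agent alone. Combination Emax is the second-highest inhibition within the matrix. Inhibition was scaled from CellTiter-Glo 2.0 luminescence, with 0 set by vehicle wells and 1 by blank wells, after 72 hours of two-drug dosing of cells plated in 1536-well plates.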

[2] = test system: SU8686 (Pancreatic Carcinoma); test: as above
Summary of the method: as §1

[3] = test system: C-4-I (Cervical Carcinoma); test: as above
Summary of the method: as §1

[4] = test system: VA-ES-BJ (Other Solid Carcinomas); test: as above
Summary of the method: as §1

[5] = test system: PWR-1E (Non-Cancerous); test: as above
Summary of the method: as §1

[6] = test system: OVCAR-4 (Ovarian Carcinoma); test: as above
Summary of the method: as §1

[7] = test system: SCC-15 (Oral Cavity Carcinoma); test: as above
Summary of the method: as §1

[8] = test system: NUGC-3 (Gastric Carcinoma); test: as above
Summary of the method: as §1

[9] = test system: OSC-20 (Oral Cavity Carcinoma); test: as above
Summary of the method: as §1

[10] = test system: KMOE-2 (Acute Myeloid Leukemia); test: as above
Summary of the method: as §1

[11] = test system: AMO-1 (Plasma Cell Myeloma); test: Bliss excess, mean over the matrix (fraction); higher = more synergy
Summary of the method: as §1

[12] = test system: UACC-62 (Melanoma); test: as above
Summary of the method: as §1

[13] = test system: SW13 (Other Solid Carcinomas); test: as above
Summary of the method: as §1

[14] = test system: RF-48 (B-Cell Non-Hodgkin's Lymphoma); test: as above
Summary of the method: as §1

[15] = test system: NCI-H727 (Other Solid Carcinomas); test: as above
Summary of the method: as §1

[16] = test system: LU-65 (Non-Small Cell Lung Carcinoma); test: as above
Summary of the method: as §1

[17] = test system: YH-13 (Glioblastoma); test: as above
Summary of the method: as §1

[18] = test system: KYSE-450 (Esophageal Squamous Cell Carcinoma); test: as above
Summary of the method: as §1

[19] = test system: BT-549 (Breast Carcinoma); test: as above
Summary of the method: as §1

[20] = test system: EW-24 (Ewing's Sarcoma); test: as above
Summary of the method: as §1

CN(CCO)CC[C@H](CSc1ccccc1)Nc1ccc(S(=O)(=O)NC(=O)c2ccc(N3CCC([C@@H](O)c4ccccc4-c4ccc(Cl)cc4)CC3)cc2)cc1S(=O)(=O)C(F)(F)F [AZD4320] + C1CN(CCC1(C(=O)N[C@@H](CCO)C2=CC=C(C=C2)Cl)N)C3=NC=NC4=C3C=CN4 [Capivasertib] (first compound max 1 µM, 7x7, partner max 3 µM)
combination Emax [1]: 0.116 | combination Emax [2]: 0.0053 | combination Emax [3]: 0.145 | combination Emax [4]: 0.224 | combination Emax [5]: 0.252 | combination Emax [6]: 0.0826 | combination Emax [7]: 0.14 | combination Emax [8]: 0.127 | combination Emax [9]: 0.0937 | combination Emax [10]: 0.828 | Bliss excess [11]: -0.0045 | Bliss excess [12]: -0.0584 | Bliss excess [13]: -0.0326 | Bliss excess [14]: -0.0097 | Bliss excess [15]: -0.0891 | Bliss excess [16]: -0.0108 | Bliss excess [17]: -0.0491 | Bliss excess [18]: -0.0449 | Bliss excess [19]: -0.0094 | Bliss excess [20]: -0.0378

C[C@@H](c1ccc2nccn2c1)n1nnc2ncc(-c3cnn(C)c3)nc21 [Savolitinib] + Cc1c2c(nn1C)CSCc1cc(n(C)n1)CSc1cc(c3ccccc3c1)OCCCc1c(C(=O)O)n(C)c3c-2c(Cl)ccc13 [AZD5991] (first compound max 1 µM, 7x7, partner max 1 µM)
combination Emax [1]: 0.0983 | combination Emax [2]: 0.137 | combination Emax [3]: 0.273 | combination Emax [4]: 0.218 | combination Emax [5]: 0.186 | combination Emax [6]: 0.138 | combination Emax [7]: 0.186 | combination Emax [8]: 0.23 | combination Emax [9]: 0.137 | combination Emax [10]: 0.113 | Bliss excess [11]: 0.0251 | Bliss excess [12]: 0.0285 | Bliss excess [13]: -0.0541 | Bliss excess [14]: -0.029 | Bliss excess [15]: -0.0099 | Bliss excess [16]: -0.0437 | Bliss excess [17]: 0.023 | Bliss excess [18]: -0.0186 | Bliss excess [19]: -0.0229 | Bliss excess [20]: -0.0237

C[C@@H](c1ccc2nccn2c1)n1nnc2ncc(-c3cnn(C)c3)nc21 [Savolitinib] + CC1(C)CCC(CN2CCN(c3ccc(C(=O)NS(=O)(=O)c4ccc(NCC5CCOCC5)c([N+](=O)[O-])c4)c(Oc4cnc5[nH]ccc5c4)c3)CC2)=C(c2ccc(Cl)cc2)C1 [Venetoclax] (first compound max 1 µM, 7x7, partner max 1 µM)
combination Emax [1]: 0.145 | combination Emax [2]: 0.0716 | combination Emax [3]: 0.0949 | combination Emax [4]: 0.152 | combination Emax [5]: 0.0879 | combination Emax [6]: 0.0979 | combination Emax [7]: 0.191 | combination Emax [8]: 0.181 | combination Emax [9]: 0.149 | combination Emax [10]: 0.0977 | Bliss excess [11]: 0.0036 | Bliss excess [12]: -0.0111 | Bliss excess [13]: -0.0363 | Bliss excess [14]: -0.0502 | Bliss excess [15]: -0.0536 | Bliss excess [16]: -0.0738 | Bliss excess [17]: 0.0179 | Bliss excess [18]: -0.0471 | Bliss excess [19]: -0.0439 | Bliss excess [20]: -0.0739

Cc1cc2ncnn2cc1Nc1ncc2c(n1)n(C1CCOCC1)c(=O)n2C [AZD7648] + O=C(c1cc(Cc2n[nH]c(=O)c3ccccc23)ccc1F)N1CCN(C(=O)C2CC2)CC1 [Olaparib] (first compound max 10 µM, 7x7, partner max 10 µM)
combination Emax [1]: 0.372 | combination Emax [2]: 0.0508 | combination Emax [3]: 0.224 | combination Emax [4]: 0.18 | combination Emax [5]: 0.28 | combination Emax [6]: 0.133 | combination Emax [7]: 0.14 | combination Emax [8]: 0.349 | combination Emax [9]: 0.265 | combination Emax [10]: 0.176 | Bliss excess [11]: -0.0231 | Bliss excess [12]: -0.0219 | Bliss excess [13]: -0.0454 | Bliss excess [14]: 0.0158 | Bliss excess [15]: -0.0641 | Bliss excess [16]: -0.0146 | Bliss excess [17]: -0.0272 | Bliss excess [18]: -0.0635 | Bliss excess [19]: -0.0487 | Bliss excess [20]: -0.0449

Cc1cc2ncnn2cc1Nc1ncc2c(n1)n(C1CCOCC1)c(=O)n2C [AZD7648] + C=CCn1c(=O)c2cnc(Nc3ccc(N4CCN(C)CC4)cc3)nc2n1-c1cccc(C(C)(C)O)n1 [AZD1775] (first compound max 10 µM, partner max 1 µM)
combination Emax [1]: 0.553 | combination Emax [2]: 0.224 | combination Emax [3]: 0.899 | combination Emax [4]: 0.453 | combination Emax [5]: 0.562 | combination Emax [6]: 0.607 | combination Emax [7]: 0.439 | combination Emax [8]: 0.587 | combination Emax [9]: 0.354 | combination Emax [10]: 0.924 | Bliss excess [11]: -0.0422 | Bliss excess [12]: 0.0242 | Bliss excess [13]: 0.0004 | Bliss excess [14]: 0.0239 | Bliss excess [15]: 0.024 | Bliss excess [16]: -0.0027 | Bliss excess [17]: 0.0076 | Bliss excess [18]: -0.03 | Bliss excess [19]: -0.0348 | Bliss excess [20]: -0.0294

Cc1cc2ncnn2cc1Nc1ncc2c(n1)n(C1CCOCC1)c(=O)n2C [AZD7648] + CN(C)CCCOc1ccc(-c2ccc3ncc4c(c3c2)n(C2CCOCC2)c(=O)n4C)cn1 [AZD0156] (first compound max 10 µM, 7x7, partner max 1 µM)
combination Emax [1]: 0.294 | combination Emax [2]: 0.143 | combination Emax [3]: 0.211 | combination Emax [4]: 0.225 | combination Emax [5]: 0.363 | combination Emax [6]: 0.185 | combination Emax [7]: 0.292 | combination Emax [8]: 0.296 | combination Emax [9]: 0.224 | combination Emax [10]: 0.213 | Bliss excess [11]: 0.0135 | Bliss excess [12]: 0.0247 | Bliss excess [13]: 0.0107 | Bliss excess [14]: -0.0144 | Bliss excess [15]: 0.0162 | Bliss excess [16]: 0.0053 | Bliss excess [17]: -0.0263 | Bliss excess [18]: 0.0038 | Bliss excess [19]: 0.0101 | Bliss excess [20]: -0.0643

Cc1nc(Nc2ncc(C(=O)Nc3c(C)cccc3Cl)s2)cc(N2CCN(CCO)CC2)n1 [Dasatinib] + CC(=O)Nc1cccc(-n2c(=O)n(C3CC3)c(=O)c3c(Nc4ccc(I)cc4F)n(C)c(=O)c(C)c32)c1 [Trametinib] (first compound max 2 µM, 7x7, partner max 1 µM)
combination Emax [1]: 1 | combination Emax [2]: 0.388 | combination Emax [3]: 0.731 | combination Emax [4]: 0.441 | combination Emax [5]: 0.897 | combination Emax [6]: 0.62 | combination Emax [7]: 0.739 | combination Emax [8]: 0.721 | combination Emax [9]: 0.434 | combination Emax [10]: 1 | Bliss excess [11]: 0.058 | Bliss excess [12]: 0.0064 | Bliss excess [13]: -0.0548 | Bliss excess [14]: -0.0369 | Bliss excess [15]: -0.0357 | Bliss excess [16]: -0.112 | Bliss excess [17]: -0.0698 | Bliss excess [18]: -0.0101 | Bliss excess [19]: -0.0945 | Bliss excess [20]: -0.0569

Cc1cc2ncnn2cc1Nc1ncc2c(n1)n(C1CCOCC1)c(=O)n2C [AZD7648] + CCN(CCO)CCCOc1ccc2c(Nc3cc(CC(=O)Nc4cccc(F)c4)[nH]n3)ncnc2c1 [AZD2811] (first compound max 10 µM, 7x7, partner max 1 µM)
combination Emax [1]: 0.252 | combination Emax [2]: 0.139 | combination Emax [3]: 0.298 | combination Emax [4]: 0.346 | combination Emax [5]: 0.588 | combination Emax [6]: 0.285 | combination Emax [7]: 0.458 | combination Emax [8]: 0.418 | combination Emax [9]: 0.454 | combination Emax [10]: 0.297 | Bliss excess [11]: 0.0431 | Bliss excess [12]: -0.0027 | Bliss excess [13]: 0.0406 | Bliss excess [14]: 0.0013 | Bliss excess [15]: -0.0003 | Bliss excess [16]: 0.0057 | Bliss excess [17]: -0.0762 | Bliss excess [18]: 0.0246 | Bliss excess [19]: 0.013 | Bliss excess [20]: -0.0051

CN(CCO)CC[C@H](CSc1ccccc1)Nc1ccc(S(=O)(=O)NC(=O)c2ccc(N3CCC([C@@H](O)c4ccccc4-c4ccc(Cl)cc4)CC3)cc2)cc1S(=O)(=O)C(F)(F)F [AZD4320] + Cc1cc2ncnn2cc1Nc1ncc2c(n1)n(C1CCOCC1)c(=O)n2C [AZD7648] (first compound max 1 µM, 7x7, partner max 10 µM)
combination Emax [1]: 0.223 | combination Emax [2]: 0.0978 | combination Emax [3]: 0.132 | combination Emax [4]: 0.174 | combination Emax [5]: 0.0822 | combination Emax [6]: 0.127 | combination Emax [7]: 0.265 | combination Emax [8]: 0.347 | combination Emax [9]: 0.0714 | combination Emax [10]: 0.896 | Bliss excess [11]: -0.0243 | Bliss excess [12]: -0.0329 | Bliss excess [13]: -0.0371 | Bliss excess [14]: -0.0205 | Bliss excess [15]: -0.0609 | Bliss excess [16]: -0.007 | Bliss excess [17]: -0.0186 | Bliss excess [18]: -0.0383 | Bliss excess [19]: -0.0213 | Bliss excess [20]: -0.0171

CN(CCO)CC[C@H](CSc1ccccc1)Nc1ccc(S(=O)(=O)NC(=O)c2ccc(N3CCC([C@@H](O)c4ccccc4-c4ccc(Cl)cc4)CC3)cc2)cc1S(=O)(=O)C(F)(F)F [AZD4320] + C[C@@H](Nc1cc(F)cc(F)c1)c1cc(C(=O)N(C)C)cc2c(=O)cc(N3CCOCC3)oc12 [AZD8186] (first compound max 1 µM, 7x7, partner max 3 µM)
combination Emax [1]: 0.455 | combination Emax [2]: 0.216 | combination Emax [3]: 0.611 | combination Emax [4]: 0.296 | combination Emax [5]: 0.592 | combination Emax [6]: 0.322 | combination Emax [7]: 0.447 | combination Emax [8]: 0.777 | combination Emax [9]: 0.36 | combination Emax [10]: 0.887 | Bliss excess [11]: 0.0318 | Bliss excess [12]: 0.102 | Bliss excess [13]: 0.0064 | Bliss excess [14]: 0.0072 | Bliss excess [15]: 0.0309 | Bliss excess [16]: -0.0216 | Bliss excess [17]: 0.0513 | Bliss excess [18]: -0.07 | Bliss excess [19]: -0.0156 | Bliss excess [20]: -0.0214
